In ChEMBL document CHEMBL4507270 (2021):

Legend:
[1] = system: Tyrosine-protein kinase ABL1 (Homo sapiens), P00519 [E255K]
[2] = system: Tyrosine-protein kinase ABL1 (Homo sapiens), P00519 [M351T]
[3] = target: Tyrosine-protein kinase ABL2 (Homo sapiens) (UniProt P42684)
[4] = target: Activin receptor type-1 (Homo sapiens) (UniProt Q04771)
[5] = system: ALK tyrosine kinase receptor (Homo sapiens), Q9UM73 [C1156Y]
[6] = target: Aurora kinase C (Homo sapiens) (UniProt Q9UQB9)
[7] = target: Cytoplasmic tyrosine-protein kinase BMX (Homo sapiens) (UniProt P51813)
[8] = target: Cyclin-dependent kinase 19 (Homo sapiens) (UniProt Q9BWU1)
[9] = target: Cyclin-dependent kinase 4 (Homo sapiens) (UniProt P11802)
[10] = target: Cyclin-dependent kinase 9 (Homo sapiens) (UniProt P50750)
[11] = target: Serine/threonine-protein kinase Chk2 (Homo sapiens) (UniProt O96017)
[12] = target: Serine/threonine-protein kinase DCLK1 (Homo sapiens) (UniProt O15075)
[13] = system: Epidermal growth factor receptor (Homo sapiens), P00533 [UNDEFINED MUTATION]
[14] = target: Eukaryotic translation initiation factor 2-alpha kinase 1 (Homo sapiens) (UniProt Q9BQI3)
[15] = target: Ephrin type-A receptor 5 (Homo sapiens) (UniProt P54756)
[16] = target: Mitogen-activated protein kinase 6 (Homo sapiens) (UniProt Q16659)
[17] = target: G protein-coupled receptor kinase 3 (Homo sapiens) (UniProt P35626)
[18] = target: Glycogen synthase kinase-3 alpha (Homo sapiens) (UniProt P49840)
[19] = target: Glycogen synthase kinase-3 beta (Homo sapiens) (UniProt P49841)
[20] = target: Serine/threonine-protein kinase haspin (Homo sapiens) (UniProt Q8TF76)
[21] = target: Insulin receptor (Homo sapiens) (UniProt P06213)
[22] = target: Tyrosine-protein kinase JAK1 (Homo sapiens) (UniProt P23458)
[23] = system: Mast/stem cell growth factor receptor Kit (Homo sapiens), P10721 [L576P]
[24] = target: Serine/threonine-protein kinase STK11 (Homo sapiens) (UniProt Q15831)
[25] = system: Leucine-rich repeat serine/threonine-protein kinase 2 (Homo sapiens), Q5S007 [G2019S]
[26] = target: Serine/threonine-protein kinase MAK (Homo sapiens) (UniProt P20794)
[27] = target: Mitogen-activated protein kinase kinase kinase 2 (Homo sapiens) (UniProt Q9Y2U5)
[28] = target: Maternal embryonic leucine zipper kinase (Homo sapiens) (UniProt Q14680)
[29] = system: Hepatocyte growth factor receptor (Homo sapiens), P08581 [Y1235D]
[30] = target: Serine/threonine-protein kinase 26 (Homo sapiens) (UniProt Q9P289)
[31] = target: Phosphatidylinositol 4,5-bisphosphate 3-kinase catalytic subunit beta isoform (Homo sapiens) (UniProt P42338)
[32] = target: Phosphatidylinositol 4-phosphate 5-kinase type-1 gamma (Homo sapiens) (UniProt O60331)
[33] = target: Protein kinase C eta type (Homo sapiens) (UniProt P24723)
[34] = target: Serine/threonine-protein kinase D3 (Homo sapiens) (UniProt O94806)
[35] = target: Proto-oncogene tyrosine-protein kinase ROS (Homo sapiens) (UniProt P08922)
[36] = target: Ribosomal protein S6 kinase alpha-5 (Homo sapiens) (UniProt O75582)
[37] = target: Ribosomal protein S6 kinase alpha-3 (Homo sapiens) (UniProt P51812)
[38] = target: STE20-like serine/threonine-protein kinase (Homo sapiens) (UniProt Q9H2G2)
[39] = target: Serine/threonine-protein kinase TAO3 (Homo sapiens) (UniProt Q9H2K8)
[40] = target: TGF-beta receptor type-1 (Homo sapiens) (UniProt P36897)
[41] = target: TGF-beta receptor type-2 (Homo sapiens) (UniProt P37173)
[42] = target: Non-receptor tyrosine-protein kinase TYK2 (Homo sapiens) (UniProt P29597)
[43] = target: Serine/threonine-protein kinase 32A (Homo sapiens) (UniProt Q8WU08)
[44] = target: 5-hydroxytryptamine receptor 2B (Homo sapiens, UniProt P41595); conditions: Compound concentration 10.0 uM
[45] = target: 5-hydroxytryptamine receptor 3A (Homo sapiens) (UniProt P46098); conditions: Compound concentration 10.0 uM
[46] = target: Sodium-dependent dopamine transporter (Homo sapiens) (UniProt Q01959); conditions: Compound concentration 10.0 uM
[47] = Compound concentration 1000.0 nM
[48] = Compound concentration 100.0 nM

Chain of Serine/threonine-protein kinase STK11 (Homo sapiens) (Q15831 whole entry): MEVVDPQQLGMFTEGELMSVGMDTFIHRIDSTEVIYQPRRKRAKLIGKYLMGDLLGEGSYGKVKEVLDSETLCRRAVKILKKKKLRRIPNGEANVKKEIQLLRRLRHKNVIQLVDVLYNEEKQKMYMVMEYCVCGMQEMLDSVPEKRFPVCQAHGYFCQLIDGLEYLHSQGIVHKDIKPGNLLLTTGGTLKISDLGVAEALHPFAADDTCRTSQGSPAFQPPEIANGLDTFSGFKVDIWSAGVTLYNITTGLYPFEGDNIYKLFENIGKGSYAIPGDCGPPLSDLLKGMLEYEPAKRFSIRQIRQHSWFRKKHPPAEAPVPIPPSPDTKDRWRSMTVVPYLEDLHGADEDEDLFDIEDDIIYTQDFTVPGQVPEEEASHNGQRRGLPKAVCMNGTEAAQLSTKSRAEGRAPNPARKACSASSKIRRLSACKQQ
Chain of Cyclin-dependent kinase 9 (Homo sapiens) (P50750 whole entry): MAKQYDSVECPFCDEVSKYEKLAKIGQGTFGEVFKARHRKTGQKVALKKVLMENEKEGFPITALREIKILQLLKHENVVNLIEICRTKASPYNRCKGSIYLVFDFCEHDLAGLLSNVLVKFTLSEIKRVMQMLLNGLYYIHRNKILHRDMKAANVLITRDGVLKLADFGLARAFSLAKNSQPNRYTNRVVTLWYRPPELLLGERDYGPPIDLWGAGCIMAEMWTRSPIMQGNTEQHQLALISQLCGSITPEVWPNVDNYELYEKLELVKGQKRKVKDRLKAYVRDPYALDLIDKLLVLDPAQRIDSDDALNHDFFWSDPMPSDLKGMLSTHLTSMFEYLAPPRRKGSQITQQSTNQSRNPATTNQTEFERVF
Chain of Glycogen synthase kinase-3 beta (Homo sapiens) (P49841 whole entry, looked up): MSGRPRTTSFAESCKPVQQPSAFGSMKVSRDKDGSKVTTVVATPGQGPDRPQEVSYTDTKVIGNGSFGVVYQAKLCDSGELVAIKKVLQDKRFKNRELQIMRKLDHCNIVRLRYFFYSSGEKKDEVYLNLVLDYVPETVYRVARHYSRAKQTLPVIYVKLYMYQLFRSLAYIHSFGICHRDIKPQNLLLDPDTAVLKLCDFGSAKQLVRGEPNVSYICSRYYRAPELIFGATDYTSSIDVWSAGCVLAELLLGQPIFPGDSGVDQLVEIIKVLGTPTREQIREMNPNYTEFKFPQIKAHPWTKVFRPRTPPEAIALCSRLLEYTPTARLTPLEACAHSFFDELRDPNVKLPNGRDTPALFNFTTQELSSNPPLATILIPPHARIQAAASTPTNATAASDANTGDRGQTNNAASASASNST
Chain of Maternal embryonic leucine zipper kinase (Homo sapiens) (Q14680 whole entry, looked up): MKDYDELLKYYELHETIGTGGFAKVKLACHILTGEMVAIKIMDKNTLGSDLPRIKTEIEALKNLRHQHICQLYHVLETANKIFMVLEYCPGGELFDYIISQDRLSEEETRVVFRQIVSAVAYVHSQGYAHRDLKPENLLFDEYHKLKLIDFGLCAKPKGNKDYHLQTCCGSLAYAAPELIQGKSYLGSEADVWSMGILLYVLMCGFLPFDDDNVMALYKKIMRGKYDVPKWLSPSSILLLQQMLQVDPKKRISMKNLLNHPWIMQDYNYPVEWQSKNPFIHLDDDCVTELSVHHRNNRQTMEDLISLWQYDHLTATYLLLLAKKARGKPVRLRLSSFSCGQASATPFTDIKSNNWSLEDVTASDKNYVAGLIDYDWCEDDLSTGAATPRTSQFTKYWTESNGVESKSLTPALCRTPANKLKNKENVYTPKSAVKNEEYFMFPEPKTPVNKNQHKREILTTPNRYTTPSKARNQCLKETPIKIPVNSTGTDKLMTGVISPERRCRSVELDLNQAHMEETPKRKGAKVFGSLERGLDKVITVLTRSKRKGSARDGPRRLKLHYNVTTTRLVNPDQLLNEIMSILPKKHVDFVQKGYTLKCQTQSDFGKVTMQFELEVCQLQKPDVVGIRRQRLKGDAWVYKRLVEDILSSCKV
Chain of Leucine-rich repeat serine/threonine-protein kinase 2 (Homo sapiens), Q5S007 [G2019S] (Q5S007 whole entry G2019S): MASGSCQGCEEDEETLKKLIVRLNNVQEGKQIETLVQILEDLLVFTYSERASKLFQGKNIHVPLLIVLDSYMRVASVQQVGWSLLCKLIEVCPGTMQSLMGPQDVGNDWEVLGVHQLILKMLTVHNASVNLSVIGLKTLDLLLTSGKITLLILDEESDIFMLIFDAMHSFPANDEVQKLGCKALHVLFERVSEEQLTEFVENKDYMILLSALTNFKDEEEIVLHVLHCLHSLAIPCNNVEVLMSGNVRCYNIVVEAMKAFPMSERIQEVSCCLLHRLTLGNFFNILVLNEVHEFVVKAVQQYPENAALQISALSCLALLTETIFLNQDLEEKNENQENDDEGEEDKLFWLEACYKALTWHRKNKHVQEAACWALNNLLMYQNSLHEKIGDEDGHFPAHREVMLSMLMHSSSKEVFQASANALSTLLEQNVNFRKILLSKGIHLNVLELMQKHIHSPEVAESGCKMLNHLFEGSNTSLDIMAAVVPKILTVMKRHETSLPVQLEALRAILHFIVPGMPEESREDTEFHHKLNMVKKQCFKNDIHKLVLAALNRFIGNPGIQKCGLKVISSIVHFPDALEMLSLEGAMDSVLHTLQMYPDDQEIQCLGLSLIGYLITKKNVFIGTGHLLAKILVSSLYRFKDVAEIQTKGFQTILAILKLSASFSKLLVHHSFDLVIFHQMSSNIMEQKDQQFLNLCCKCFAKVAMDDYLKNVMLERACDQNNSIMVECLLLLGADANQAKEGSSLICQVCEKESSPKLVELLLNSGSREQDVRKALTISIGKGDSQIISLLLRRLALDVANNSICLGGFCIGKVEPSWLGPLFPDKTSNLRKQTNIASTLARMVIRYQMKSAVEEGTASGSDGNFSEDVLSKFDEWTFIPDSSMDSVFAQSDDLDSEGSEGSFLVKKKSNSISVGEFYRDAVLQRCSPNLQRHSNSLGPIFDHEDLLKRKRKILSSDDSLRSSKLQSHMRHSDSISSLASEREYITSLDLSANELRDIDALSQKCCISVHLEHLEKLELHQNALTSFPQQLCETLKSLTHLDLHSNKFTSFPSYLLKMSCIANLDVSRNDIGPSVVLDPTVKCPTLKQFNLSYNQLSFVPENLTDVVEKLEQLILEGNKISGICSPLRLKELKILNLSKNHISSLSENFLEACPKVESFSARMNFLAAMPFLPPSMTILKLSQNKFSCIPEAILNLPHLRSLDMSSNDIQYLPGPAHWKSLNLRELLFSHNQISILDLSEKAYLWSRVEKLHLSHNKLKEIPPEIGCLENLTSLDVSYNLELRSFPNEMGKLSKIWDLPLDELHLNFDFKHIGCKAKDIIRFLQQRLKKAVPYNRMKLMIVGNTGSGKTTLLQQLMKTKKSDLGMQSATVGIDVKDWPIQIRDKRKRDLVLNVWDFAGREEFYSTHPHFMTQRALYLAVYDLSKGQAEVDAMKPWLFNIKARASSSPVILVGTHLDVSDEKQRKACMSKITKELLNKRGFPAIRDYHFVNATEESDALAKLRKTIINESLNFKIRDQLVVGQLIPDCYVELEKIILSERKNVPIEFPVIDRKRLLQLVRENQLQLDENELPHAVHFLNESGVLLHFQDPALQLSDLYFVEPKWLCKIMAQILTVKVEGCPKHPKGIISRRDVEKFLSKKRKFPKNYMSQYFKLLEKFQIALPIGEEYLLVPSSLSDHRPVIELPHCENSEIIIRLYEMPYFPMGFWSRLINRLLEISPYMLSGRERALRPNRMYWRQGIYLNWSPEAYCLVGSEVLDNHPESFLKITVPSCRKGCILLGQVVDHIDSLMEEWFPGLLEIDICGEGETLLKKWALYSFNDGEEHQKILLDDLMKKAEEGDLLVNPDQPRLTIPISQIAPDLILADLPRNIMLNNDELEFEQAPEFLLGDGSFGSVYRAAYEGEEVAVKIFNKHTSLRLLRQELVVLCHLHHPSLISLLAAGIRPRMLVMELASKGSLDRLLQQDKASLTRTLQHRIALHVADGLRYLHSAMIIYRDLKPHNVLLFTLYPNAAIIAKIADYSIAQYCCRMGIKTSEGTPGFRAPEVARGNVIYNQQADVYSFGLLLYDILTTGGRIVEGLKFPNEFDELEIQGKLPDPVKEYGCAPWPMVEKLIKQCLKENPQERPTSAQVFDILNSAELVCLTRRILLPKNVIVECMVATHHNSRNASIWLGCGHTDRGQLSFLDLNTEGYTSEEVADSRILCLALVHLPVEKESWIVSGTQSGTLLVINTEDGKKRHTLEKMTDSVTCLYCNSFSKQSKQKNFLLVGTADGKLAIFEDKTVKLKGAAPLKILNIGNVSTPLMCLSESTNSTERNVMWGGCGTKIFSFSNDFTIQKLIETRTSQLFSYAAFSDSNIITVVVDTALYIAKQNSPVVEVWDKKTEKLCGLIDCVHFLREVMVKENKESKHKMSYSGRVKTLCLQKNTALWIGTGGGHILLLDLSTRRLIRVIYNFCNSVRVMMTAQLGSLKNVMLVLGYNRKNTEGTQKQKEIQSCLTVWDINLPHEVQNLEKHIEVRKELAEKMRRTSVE
Chain of 5-hydroxytryptamine receptor 3A (Homo sapiens) (P46098 whole entry): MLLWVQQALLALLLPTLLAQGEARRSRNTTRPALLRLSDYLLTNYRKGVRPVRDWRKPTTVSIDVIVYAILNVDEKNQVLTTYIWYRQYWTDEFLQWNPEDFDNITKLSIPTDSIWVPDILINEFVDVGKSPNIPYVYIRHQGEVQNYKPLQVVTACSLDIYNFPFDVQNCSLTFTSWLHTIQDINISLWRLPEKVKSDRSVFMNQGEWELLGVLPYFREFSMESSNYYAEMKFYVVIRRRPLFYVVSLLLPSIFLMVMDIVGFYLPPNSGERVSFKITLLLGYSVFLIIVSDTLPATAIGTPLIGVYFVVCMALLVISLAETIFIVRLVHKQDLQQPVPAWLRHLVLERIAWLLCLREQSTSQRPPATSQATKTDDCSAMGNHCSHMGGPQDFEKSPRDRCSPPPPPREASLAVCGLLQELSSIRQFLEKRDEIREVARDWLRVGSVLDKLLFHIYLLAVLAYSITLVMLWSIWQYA

SMILES: Cc1cc(NC(=O)c2cccc(S(F)(F)(F)(F)F)c2)cc(-n2ccn3nc(-c4cccnc4)cc23)c1 [BAY-309]
- residual activity [1, 47]: 66.7%
- residual activity [2, 47]: 70.3%
- residual activity [3, 47]: 100%
- residual activity [4, 47]: 100%
- residual activity [5, 47]: 100%
- residual activity [6, 47]: 86.7%
- residual activity [7, 47]: 100%
- residual activity [8, 47]: 84.1%
- residual activity [9, 47]: 100%
- residual activity [10, 47]: 100%
- residual activity [11, 47]: 100%
- residual activity [12, 47]: 66.2%
- residual activity [13, 47]: 100%
- residual activity [14, 47]: 100%
- residual activity [15, 47]: 100%
- residual activity [16, 47]: 100%
- residual activity [17, 47]: 74.8%
- residual activity [18, 47]: 100%
- residual activity [19, 47]: 85.4%
- residual activity [20, 47]: 70.9%
- residual activity [21, 47]: 100%
- residual activity [22, 47]: 28.7%
- residual activity [23, 47]: 100%
- residual activity [24, 47]: 100%
- residual activity [25, 47]: 81.3%
- residual activity [26, 47]: 100%
- residual activity [27, 47]: 52.7%
- residual activity [28, 47]: 100%
- residual activity [29, 47]: 100%
- residual activity [30, 47]: 100%
- residual activity [31, 47]: 100%
- residual activity [32, 47]: 100%
- residual activity [33, 47]: 100%
- residual activity [34, 47]: 100%
- residual activity [35, 47]: 92.8%
- residual activity [36, 47]: 100%
- residual activity [37, 47]: 66.6%
- residual activity [38, 47]: 95.2%
- residual activity [39, 47]: 100%
- residual activity [40, 47]: 74.3%
- residual activity [41, 47]: 94.5%
- residual activity [42, 47]: 100%
- residual activity [43, 47]: 100%
- inhibition [44]: 60.4%
- inhibition [45]: -8.73%
- inhibition [46]: 38.1%

SMILES: Cc1cc(C)c(-n2ccn3nc(-c4cccnc4)cc23)cc1NC(=O)c1cc(C#N)cc(S(F)(F)(F)(F)F)c1 [BAY-826]
- residual activity [1, 48]: 74.5%
- residual activity [2, 48]: 82.6%
- residual activity [3, 48]: 67.8%
- residual activity [4, 48]: 83.3%
- residual activity [5, 48]: 76.6%
- residual activity [6, 48]: 100%
- residual activity [7, 48]: 76.7%
- residual activity [8, 48]: 90.7%
- residual activity [9, 48]: 86.2%
- residual activity [10, 48]: 85.5%
- residual activity [11, 48]: 100%
- residual activity [12, 48]: 73.6%
- residual activity [13, 48]: 88.5%
- residual activity [14, 48]: 100%
- residual activity [15, 48]: 92.4%
- residual activity [16, 48]: 85.8%
- residual activity [17, 48]: 90.6%
- residual activity [18, 48]: 100%
- residual activity [19, 48]: 85.9%
- residual activity [20, 48]: 64%
- residual activity [21, 48]: 69%
- residual activity [22, 48]: 93.1%
- residual activity [23, 48]: 40.7%
- residual activity [24, 48]: 75.9%
- residual activity [25, 48]: 73.9%
- residual activity [26, 48]: 77.2%
- residual activity [27, 48]: 86.4%
- residual activity [28, 48]: 100%
- residual activity [29, 48]: 93.4%
- residual activity [30, 48]: 81.8%
- residual activity [31, 48]: 89.1%
- residual activity [32, 48]: 70.2%
- residual activity [33, 48]: 99.5%
- residual activity [34, 48]: 97%
- residual activity [35, 48]: 100%
- residual activity [36, 48]: 100%
- residual activity [37, 48]: 84.4%
- residual activity [38, 48]: 48.5%
- residual activity [39, 48]: 47.1%
- residual activity [40, 48]: 98.2%
- residual activity [41, 48]: 78.6%
- residual activity [42, 48]: 87.3%
- residual activity [43, 48]: 100%
- inhibition [44]: -7%
- inhibition [45]: 18.4%
- inhibition [46]: 10.7%
